Laboratory results as given in ChEMBL document CHEMBL3751789, “Synthesis, isomerization and biological activity of novel 2-selenohydantoin derivatives” (Bioorg Med Chem, 2016).
Active and inactive are the calls of the source. The calls are words filed in the database; no cut-off is given here.

Assays:
[1] = Antioxidant activity assessed as oxidation potential using Au electrode by cyclic voltammetric analysis; format: physicochemical
[2] = Antioxidant activity assessed as peroxide reduction rate at 80 uM using H2O2/pyrocatechol as substrate/hydrogen-donar; format: physicochemical
[3] = Antioxidant activity assessed as oxidation potential using glass carbon electrode by cyclic voltammetric analysis; format: physicochemical
[4] = Antioxidant activity assessed as peroxide reduction rate at 80 uM using H2O2/pyrogallol as substrate/hydrogen-donar by ABTS-based assay; format: physicochemical
[5] = Antioxidant activity assessed as peroxide reduction rate at 80 uM using H2O2/4-aminoantipyrine as substrate/hydrogen-donar; format: physicochemical
[6] = Antioxidant activity assessed as electrochemical reduction using Au electrode by cyclic voltammetric analysis; format: physicochemical
[7] = Antioxidant activity assessed as peroxide reduction rate at 80 uM using H2O2/GSH as substrate/hydrogen-donar by GPx-based assay; format: physicochemical
[8] = Antioxidant activity assessed as electrochemical reduction using glass carbon electrode by cyclic voltammetric analysis; format: physicochemical
[9] = Antioxidant activity assessed as peroxide reduction rate at 80 uM using H2O2/guaiacol as substrate/hydrogen-donar by ABTS-based assay; format: physicochemical
MCF7 = test: Cytotoxicity against human MCF7 cells after 48 hrs by MTT assay; format: functional
HEK293 [10] = test: (§1) Cytotoxicity against HEK293 cells after 48 hrs by MTT assay; format: cell-based; conditions: human, hek293, 48 h
SiHa = test: Cytotoxicity against human SiHa cells after 48 hrs by MTT assay; format: functional
HepG2 = test: Cytotoxicity against human HepG2 cells after 48 hrs by MTT assay; format: functional
[11] = as §1; format: cell-based; conditions: human, HEK293 cells
HEK293 [12] = test: Selectivity index, ratio CC50 for HEK293 cells to CC50 for human HepG2 cells; format: functional
HEK293 [13] = test: Selectivity index, ratio CC50 for HEK293 cells to CC50 for human MCF7 cells; format: functional
HEK293 [14] = test: Selectivity index, ratio CC50 for HEK293 cells to CC50 for human SiHa cells; format: functional

Q: Which Activity [1] does the source give for O=C1/C(=C/c2ccccn2)NC(=[Se])N1C1CCCCC1 here?
A: The Activity was 1.23 V.

Q: What about the Activity [2] of the same compound?
A: The Activity was 0 µM/min.

Q: What about the Activity [3] of the same compound?
A: Its Activity is 1.16 V.

Q: What about the Activity [4] of the same compound?
A: The Activity was 0 µM/min.

Q: And the Activity [5]?
A: The Activity was 3 µM/min.

Q: And the Activity [6]?
A: Its Activity is -1.81 V.

Q: And the Activity [7]?
A: Its Activity is 138 µM/min.

Q: What about the Activity [8] of the same compound?
A: Its Activity is -2.2 V.

Q: And the Activity [9]?
A: The Activity was 0 µM/min.

Q: Which CC50 (MCF7) does the source give for C=CCN1C(=O)/C(=C/c2ccccn2)N=C1SC here?
A: The CC50 was “inactive”.

Q: And the CC50 (HEK293 [10])?
A: Its CC50 is “Not Active”.

Q: And the CC50 (SiHa)?
A: Its CC50 is 102 µM.

Q: What about the CC50 (HepG2; HepG2, 48 h) of the same compound?
A: Its CC50 is 56.7 µM.

Q: For O=C1/C(=C/c2ccccn2)N=C([Se]CC[Se]C2=N/C(=C\c3ccccn3)C(=O)N2C2CCCCC2)N1C1CCCCC1, which Activity [1] is on record?
A: The Activity was 1.28 V.

Q: And the Activity [3]?
A: Its Activity is 1.46 V.

Q: What about the Activity [6] of the same compound?
A: The Activity was -1.86 V.

Q: And the Activity [8]?
A: Its Activity is -2.61 V.

Q: Which CC50 (MCF7; MCF7, 48 h) does the source give for C=CCN1C(=O)CNC1=S here?
A: The CC50 was 35.2 µM.

Q: And the CC50 at 48 h [11]?
A: Its CC50 at 48 h is 58.2 µM.

Q: And the CC50 (SiHa)?
A: Its CC50 is 42.4 µM.

Q: What about the CC50 (HepG2; HepG2, 48 h) of the same compound?
A: The CC50 was 40.7 µM.

Q: For C=CCN1C(=O)/C(=C/c2ccccn2)NC1=S, which Activity [2] is on record?
A: The Activity was 0 µM/min.

Q: And the CC50 (MCF7)?
A: Its CC50 is “inactive”.

Q: What about the Activity [4] of the same compound?
A: The Activity was 0 µM/min.

Q: What about the CC50 (HEK293 [10]) of the same compound?
A: Its CC50 is “Not Active”.

Q: What about the Activity [5] of the same compound?
A: Its Activity is 0 µM/min.

Q: And the Activity [7]?
A: Its Activity is 0 µM/min.

Q: And the CC50 (SiHa)?
A: The CC50 was “inactive”.

Q: And the CC50 (HepG2)?
A: Its CC50 is “inactive”.

Q: And the Activity [9]?
A: Its Activity is 0 µM/min.

Q: What does the source list for C=CCN1C(=O)/C(=C/c2ccccn2)N=C1[Se]C?
A: Activity [2]: 0 µM/min; Selectivity Index (HEK293 [12]): >2; CC50 (MCF7; MCF7, 48 h): 7.18 µM; Activity [4]: 0 µM/min; CC50 at 48 h [11]: 12.6 µM; Activity [5]: 0 µM/min; Selectivity Index (HEK293 [13]): >2; Activity [7]: 0 µM/min; CC50 (SiHa): 3.66 µM; CC50 (HepG2; HepG2, 48 h): 6.62 µM; Activity [9]: 0 µM/min; Selectivity Index (HEK293 [14]): >2

Q: Which Activity [2] does the source give for CCOC(=O)CNC(=[Se])NC1CCCCC1 here?
A: Its Activity is 1.3 µM/min.

Q: And the Activity [4]?
A: Its Activity is 0 µM/min.

Q: And the Activity [5]?
A: The Activity was 0 µM/min.

Q: And the Activity [7]?
A: The Activity was 82 µM/min.

Q: What about the Activity [9] of the same compound?
A: The Activity was 0 µM/min.

Q: Which results are given for C=CCN1C(=O)CNC1=[Se]?
A: CC50 (MCF7; MCF7, 48 h): 44.1 µM; CC50 at 48 h [11]: 10.3 µM; CC50 (SiHa): 12.7 µM; CC50 (HepG2; HepG2, 48 h): 16.4 µM

Q: Which Activity [7] does the source give for O=c1c2ccccc2[se]n1-c1ccccc1 [EBSELEN] here?
A: Its Activity is 140 µM/min.

Q: What does the source list for C=CCN1C(=O)/C(=C/c2ccccn2)NC1=[Se]?
A: Activity [1]: 1.21 V; Activity [2]: 0 µM/min; Selectivity Index (HEK293 [12]): >2; Activity [3]: 1.2 V; CC50 (MCF7; MCF7, 48 h): 31.2 µM; Activity [4]: 0 µM/min; CC50 at 48 h [11]: 42.6 µM; Activity [5]: 0 µM/min; Selectivity Index (HEK293 [13]): >2; Activity [6]: -1.79 V; Activity [7]: 79 µM/min; CC50 (SiHa): 23.6 µM; Activity [8]: -2.15 V; CC50 (HepG2; HepG2, 48 h): 29.8 µM; Activity [9]: 0 µM/min; Selectivity Index (HEK293 [14]): >2
